{"source": "paper PMC5582420", "about": "“Hirsutine, an Indole Alkaloid of Uncaria rhynchophylla, Inhibits Late Step in Dengue Virus Lifecycle” (Frontiers in Microbiology, 2017)", "key": {"[1]": {"tested_on": "DENV-NS3 protein expression, DENV-1", "assay": "Western blot of DENV-NS3 protein in DENV-1-infected A549 cells", "type": "cell-based, Dengue virus", "settings": "MOI 0.1 and 1.0, 18 hpi", "experimental": "Western blotting was performed as described previously ([Hishiki et al., 2014]). Briefly, DENV-1-infected A549 cells were co-cultured with 10 μM hirsutine, 100 μM ribavirin, or 10 μM bromocriptine. Protein samples were separated by SDS-PAGE and transferred to polyvinylidene fluoride blotting membranes (GE Healthcare, Little Chalfont, United Kingdom). Anti-NS3 rabbit polyclonal antibodies (GTX124252; GeneTex, Irvine, CA, United States) and anti-glyceraldehyde-3-phosphate dehydrogenase (GAPDH) mouse monoclonal antibodies (MAB374; Millipore, Billerica, MA, United States) were used as primary antibodies.\nA549 cells were infected with DENV-1 at a MOI of 0.1 and 1.0 in the presence of 10 μM hirsutine (Hi), 100 μM ribavirin (Ri), or 10 μM bromocriptine (Br). Cell lysate was collected 18 h post-infection, and DENV-NS3 (top) and GAPDH (bottom) protein expression levels were assessed by Western blot."}, "[2]": {"tested_on": "DENV-1", "assay": "Time-of-drug-addition assay", "type": "cell-based, Dengue virus", "settings": "10 μM added at 0, 2, 4, 6, 8, 12, 18 hpi; A549, MOI 1.0; titer at 24 hpi", "experimental": "Next, the cells were rinsed twice with phosphate-buffered saline, and fresh medium was added. At 0, 2, 4, 6, 8, 12, and 18 hpi, hirsutine at a final concentration of 10 μM was added to the infected cells. At 24 hpi, the cell culture supernatant was collected, and viral titer was assessed by plaque assay.\n(§1) FIGURE 2 Hirsutine inhibits the late stage of the dengue virus lifecycle. (A) Time-of-drug-addition assay. Hirsutine (10 μM) was added at 0, 2, 4, 6, 8, 12, and 18 h post-DENV-1 infection. After 24 h, virus titers in the culture supernatant were analyzed by plaque assay. (B) Time-of-drug-elimination assay. Hirsutine (10 μM) was treated for 0–2, 0–4, and 0–6 h post-DENV-1 infection. After 24 h, virus titers in the culture supernatant were analyzed by plaque assay. ^∗p < 0.05. […] DMSO, dimethyl sulfoxide; hpi, hours post-infection; and PFU, plaque-forming units."}, "[3]": {"tested_on": "DENV-3 (09-59 strain)", "assay": "Virus titer by plaque assay in infected A549 cells, DENV-3", "type": "cell-based, Dengue virus", "settings": "10 μM, MOI 0.01, supernatant 72 hpi", "experimental": "(§2) The viruses used in this study included DENV-1 (02-20 strain) ([Tajima et al., 2006]), DENV-2 (16681 strain), DENV-3 (09-59 strain), and DENV-4 (09-48 strain). The strains were cultured in Vero cells, and stored at -80°C. Dengue virus titer was determined by plaque assay as summarized below.\n(§3) Baby hamster kidney-21 cells were cultured in a 12-well plate and infected with serial dilutions of virus suspension, then incubated at 37°C for 1 h. At 1 hpi, cells were incubated in EMEM containing 2% FBS and 1% methylcellulose. After 5 days of incubation, the cells were fixed with paraformaldehyde and stained with methylene blue. Virus titer was calculated as plaque-forming units (PFU)/mL. The half-maximal effective concentration (EC50) against each virus was calculated using the Reed and Muench method.\n(§4) FIGURE 1 Hirsutine inhibits replication of dengue virus serotypes DENV-1–4. (A) Structural formula of hirsutine. (B) Hirsutine inhibits viral replication of all four serotypes. A549 cells were infected with DENV-1–4 at a multiplicity of infection (MOI) of 0.01 in the presence of 10 μM hirsutine. Cell culture supernatants were collected 72 hpi, and viral titers were determined by plaque assay. All data were normalized to their control (0 μM of hirsutine)."}, "[4]": {"tested_on": "DGL2 and DGL2-mut DENV-1 replicon", "assay": "Transient subgenomic reporter replicon assay (Gaussia luciferase)", "settings": "10 μM, A549 cells", "quoted_text": "A549 cells were cultured in a 24-well plate and transfected with DGL2 and DGL2-mut using X-tremeGENE HP DNA transfection reagent (Roche, Basel, Switzerland); 10 μM of hirsutine was added at baseline. The cell culture medium was collected and replaced with fresh medium containing 10 μM of hirsutine every 24 h. The Gaussia luciferase activity in the culture medium was measured using a microplate reader.\n(A) Schematic representation of the replicon system, which uses DGL2 and DGL2-mut. DGL2-mut was inserted in non-replicative mutation into RNA-dependent RNA polymerase (RdRp). CMVp, cytomegalovirus promoter; Gluc, secretory Gaussia luciferase; IRES, internal ribosome entry site; GAA, mutation in the active center for RdRp; and Rib, ribozyme sequence. (B) Replicon plasmids DGL2 and DGL2-mut were transfected to A549 cells in the presence of 10 μM hirsutine. After 24 and 72 h, luciferase activity in the culture supernatant was analyzed. Each data point represents the mean ± standard deviation from triplicate experiments."}, "[5]": {"assay": "MTT cytotoxicity assay", "type": "cell-based", "settings": "human, compounds, A549 cells, 3-day incubation", "experimental": "Human lung carcinoma cells (A549) and baby hamster kidney cells (BHK-21) were maintained in Eagle’s minimum essential medium (EMEM; Life Technologies, Carlsbad, CA, United States) supplemented with 10% fetal bovine serum (FBS; JR Scientific, Woodland, CA, United States), penicillin, and streptomycin sulfate (Nacalai Tesque, Kyoto, Japan) at 37°C with 5% CO2. Hybridoma-producing anti-E antibody (HB-112) was maintained in RPMI 1640 medium (Life Technologies, Carlsbad, CA, United States) supplemented with 10% FBS and antibiotics at 37°C with 5% CO2.\nCell viability was assessed by 3-(4,5-dimethylthiazol-2-yl)-2,5-diphenyltetrazolium bromide (MTT) assay. A549 cells were cultured in a 96-well plate with the selected compound (0–10 μM) or extract (0–100 μg/mL). After a 3-day incubation, 30 μL of 0.5% MTT solution was added to each well. After incubation for 3 h, the supernatant was replaced with 100 μL of methanol with 1% Triton X-100, and then vortexed to dissolve the formazan. Absorbance at 565 nm and reference at 655 nm were measured using a microplate reader (Berthold Technologies, Bad Wildbad, Germany). The half-maximal cytotoxicity concentration (CC50) was calculated using the Reed and Muench method ([Reed and Muench, 1938])."}, "[6]": {"tested_on": "influenza A virus (subtype H3N2)", "set-up": "method as in Takayama et al., 1997; Tietze and Zhou, 1999", "settings": "ref Takayama et al., 1997, Tietze and Zhou, 1999; cited from earlier work"}, "[7]": {"tested_on": "DENV-4 (09-48 strain)", "assay": "Virus titer by plaque assay in infected A549 cells, DENV-4", "type": "cell-based, Dengue virus", "settings": "10 μM, MOI 0.01, supernatant 72 hpi", "experimental": "as §2, §3, §4"}, "[8]": {"tested_on": "DENV-1 (02-20 strain)", "assay": "Virus titer by plaque assay in infected A549 cells, DENV-1", "type": "cell-based, Dengue virus", "settings": "10 μM, MOI 0.01, supernatant 72 hpi", "experimental": "as §2, §3, §4"}, "[9]": {"tested_on": "DENV-1", "assay": "Time-of-drug-elimination assay", "type": "cell-based, Dengue virus", "settings": "10 μM, A549, MOI 1.0, titer at 24 hpi", "experimental": "Next, the cells were rinsed with phosphate-buffered saline twice, and fresh medium containing 10 μM hirsutine was added. At 2, 4, and 6 hpi, the cells were rinsed with phosphate-buffered saline twice and fresh medium was added. At 24 hpi, the cell culture supernatant was collected, and viral titer was measured by plaque assay.\nas §1"}, "[10]": {"tested_on": "DENV-2 (16681 strain)", "assay": "Virus titer by plaque assay in infected A549 cells, DENV-2", "type": "cell-based, Dengue virus", "settings": "10 μM, MOI 0.01, supernatant 72 hpi", "experimental": "as §2, §3, §4"}, "[11]": {"tested_on": "DENV-1 (02-20 strain)", "assay": "Plaque assay, EC50 against DENV-1 (fourth screening)", "type": "cell-based, Dengue virus", "settings": "compounds; for EC50: Dengue virus, DENV1, against DENV-1, plaque assay, Reed and Muench method; for SI: selectivity index from CC50 and EC50"}}}
{"smiles": "CC(C)C[C@H]1C(=O)N2CCC[C@H]2[C@]2(O)O[C@](NC(=O)[C@@H]3C=C4c5cccc6[nH]c(Br)c(c56)C[C@H]4N(C)C3)(C(C)C)C(=O)N12", "note": "[bromocriptine]", "values": [{"measurement": "NS3 protein expression levels", "setting": "[1]; 10 μM", "result": "decreased significantly"}]}
{"smiles": "CC[C@H]1CN2CCc3c([nH]c4ccccc34)[C@H]2C[C@@H]1/C(=C\\OC)C(=O)OC", "note": "[Hirsutine]", "values": [{"measurement": "virus titer in culture supernatant, time-of-drug-addition", "setting": "[2]", "result": "reduced the virus titer significantly up to 12 hpi"}, {"measurement": "virus titer", "setting": "[3]", "result": "decreased"}, {"measurement": "Gaussia luciferase activity in culture supernatant", "setting": "[4]; DGL2, 24 h and 72 h post-transfection", "result": "did not reduce luciferase activity levels"}, {"measurement": "Gaussia luciferase activity in culture supernatant", "setting": "[4]; non-replicate DGL2-mut, 24 h and 72 h post-transfection", "result": "did not reduce luciferase activity levels"}, {"measurement": "CC50 at 3 day", "setting": "[5]", "result": "> 10", "unit": "µM"}, {"measurement": "EC50 more effective than ribavirin", "setting": "[6]", "result": "over 10 fold"}, {"measurement": "virus titer", "setting": "[7]", "result": "decreased"}, {"measurement": "NS3 protein expression levels", "setting": "[1]; 10 μM", "result": "did not change"}, {"measurement": "virus titer", "setting": "[8]", "result": "decreased"}, {"measurement": "virus titer in culture supernatant, time-of-drug-elimination", "setting": "[9]; 2-h treatment", "result": "did not decrease the virus titer"}, {"measurement": "virus titer in culture supernatant, time-of-drug-elimination", "setting": "[9]; 4-h treatment", "result": "did decrease"}, {"measurement": "virus titer", "setting": "[10]", "result": "decreased"}, {"measurement": "EC50", "setting": "[11]", "result": 1.97, "unit": "µM"}, {"measurement": "SI", "setting": "[11]", "result": ">5.3"}]}
{"smiles": "C[C@H]1CC[C@@]2(OC1)O[C@H]1C[C@H]3[C@@H]4CC[C@@H]5C[C@@H](O[C@@H]6O[C@H](CO)[C@H](O)[C@H](O)[C@H]6O[C@@H]6O[C@H](CO)[C@@H](O)[C@H](O)[C@H]6O)CC[C@]5(C)[C@H]4CC[C@]3(C)[C@H]1[C@@H]2C", "note": "[Timosaponin-AIII]", "values": [{"measurement": "CC50 at 3 day", "setting": "[5]", "result": "> 10", "unit": "µM"}, {"measurement": "EC50", "setting": "[11]", "result": 1.7, "unit": "µM"}, {"measurement": "SI", "setting": "[11]", "result": ">5.9"}]}
{"smiles": "NC(=O)c1ncn([C@@H]2O[C@H](CO)[C@@H](O)[C@H]2O)n1", "note": "[ribavirin]", "values": [{"measurement": "NS3 protein expression levels", "setting": "[1]; 100 μM", "result": "decreased significantly"}]}
